ChEMBL document CHEMBL3608217, “Discovery of novel bridged tetrahydronaphthalene derivatives as potent T/L-type calcium channel blockers” (Bioorg Med Chem Lett, 2015)
≈ marks a conversion by molar mass, not a printed value. One block for each compound: values may come before it.

Key:
[1] = target: Voltage-dependent L-type calcium channel subunit alpha-1C (Homo sapiens, UniProt Q13936); experiment: Inhibition of recombinant Cav1.2 channel (unknown origin) expressed in HEK293 cells assessed as effect on calcium flux incubated for 3 mins by FLIPR assay; type: cell-based
Heart = experiment: Increase in coronary flow in Wistar rat Langendorff isolated perfused heart; type: functional, tissue-based
[2] = target: Voltage-dependent T-type calcium channel subunit alpha-1H (Homo sapiens, UniProt O95180); experiment: Inhibition of recombinant Cav3.2 channel (unknown origin) expressed in HEK293 cells assessed as effect on calcium flux incubated for 3 mins by FLIPR assay; type: cell-based
[3] = Half life in Wistar rat at 10 mg/kg, po or 1 mg/kg, iv; type: ADME, organism-based; settings: in vivo
[4] = Volume of distribution at steady state in Wistar rat at 10 mg/kg, po or 1 mg/kg, iv; type: ADME, organism-based; settings: in vivo, read-out: Vdss
[5] = Protein binding in rat plasma; type: ADME, cell-free; settings: read-out: PPB (converted)
Cytochrome P450 2C9 = Cytochrome P450 2C9 (Homo sapiens, UniProt P11712); experiment: Inhibition of CYP2C9 in human liver microsomes assessed as reduction in diclofenac 4'-hydroxylation by LC-MS/MS method; type: ADME
[6] = Solubility in pH 7.0 buffer; type: physicochemical
[7] = Protein binding in human plasma; type: ADME, cell-free; settings: read-out: PPB
[8] = Solubility in Water at pH 4; type: physicochemical
Cytochrome P450 3A4 [9] = target: T1, Cytochrome P450 3A4 (Homo sapiens, UniProt P08684); experiment: Time dependent inhibition of CYP3A4 in human liver microsomes assessed as reduction in testosterone 6beta-hydroxylation incubated for 60 mins in presence of NADPH generating system by LC-MS/MS method; type: ADME
Rattus norvegicus [10] = experiment: Antihypertensive activity in freely moving conscious spontaneously hypertensive rat at assessed as reduction in mean arterial pressure at 10 mg/kg, po administered as single dose in morning at end of wake phase measured after 6 hrs by telemetry; type: functional, Artery
[11] = Distribution coefficient, log D of the compound at pH 7.4; type: physicochemical; settings: octanol/water
Rattus norvegicus [12] = experiment: Antihypertensive activity in freely moving conscious spontaneously hypertensive rat at assessed as time duration for reduction in mean arterial pressure at 10 mg/kg, po administered as single dose in morning at end of wake phase by telemetry; type: functional, Artery
[13] = Cmax in Wistar rat at 10 mg/kg, po; type: ADME, organism-based; set-up: dose 10 mg/kg, route oral; settings: in vivo
Cytochrome P450 3A4 [14] = target: T1, Cytochrome P450 3A4; experiment: Inhibition of CYP3A4 in human liver microsomes assessed as reduction in midazolam 1'-hydroxylation by LC-MS/MS method; type: ADME
[15] = Solubility in 0.1M HCl; type: physicochemical
[16] = Clearance in Wistar rat at 10 mg/kg, po or 1 mg/kg, iv; type: ADME, organism-based; settings: in vivo
[17] = Oral bioavailability in Wistar rat at 10 mg/kg; type: ADME, organism-based; settings: in vivo
Cytochrome P450 2D6 = Cytochrome P450 2D6 (Homo sapiens, UniProt P10635); experiment: Inhibition of CYP2D6 in human liver microsomes assessed as reduction in dextromethorphan-O demethylation by LC-MS/MS method; type: ADME
Cytochrome P450 3A4 [18] = target: T1, Cytochrome P450 3A4; experiment: Inhibition of CYP3A4 in human liver microsomes assessed as reduction in testosterone 6beta-hydroxylation by LC-MS/MS method; type: ADME
Rattus norvegicus [19] = experiment: Antihypertensive activity in freely moving conscious spontaneously hypertensive rat at assessed as area between curve for reduction in mean arterial pressure at 10 mg/kg, po administered as single dose in morning at end of wake phase by telemetry; type: functional, Artery
[20] = AUC in Wistar rat at 10 mg/kg, po; type: ADME, organism-based; settings: in vivo
[21] = target: Voltage-gated inwardly rectifying potassium channel KCNH2 (Homo sapiens, UniProt Q12809); experiment: Inhibition of human ERG expressed in HEK cells by patch clamp assay
[22] = Rattus norvegicus, Wistar, Heart

T1 sequence (P08684 whole entry): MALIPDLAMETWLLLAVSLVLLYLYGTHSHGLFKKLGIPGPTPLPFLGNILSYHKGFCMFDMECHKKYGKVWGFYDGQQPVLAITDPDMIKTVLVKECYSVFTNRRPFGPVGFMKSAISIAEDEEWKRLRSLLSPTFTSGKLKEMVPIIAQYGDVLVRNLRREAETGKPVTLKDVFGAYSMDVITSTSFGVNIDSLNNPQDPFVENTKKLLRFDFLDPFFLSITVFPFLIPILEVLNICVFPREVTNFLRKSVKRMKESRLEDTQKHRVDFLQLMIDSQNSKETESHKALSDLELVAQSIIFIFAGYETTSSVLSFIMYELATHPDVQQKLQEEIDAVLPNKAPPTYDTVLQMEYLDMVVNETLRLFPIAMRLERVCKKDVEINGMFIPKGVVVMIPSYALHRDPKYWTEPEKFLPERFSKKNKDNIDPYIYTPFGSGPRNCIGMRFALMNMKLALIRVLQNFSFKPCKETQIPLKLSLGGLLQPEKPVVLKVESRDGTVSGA
Sequence of Voltage-dependent T-type calcium channel subunit alpha-1H (O95180 whole entry): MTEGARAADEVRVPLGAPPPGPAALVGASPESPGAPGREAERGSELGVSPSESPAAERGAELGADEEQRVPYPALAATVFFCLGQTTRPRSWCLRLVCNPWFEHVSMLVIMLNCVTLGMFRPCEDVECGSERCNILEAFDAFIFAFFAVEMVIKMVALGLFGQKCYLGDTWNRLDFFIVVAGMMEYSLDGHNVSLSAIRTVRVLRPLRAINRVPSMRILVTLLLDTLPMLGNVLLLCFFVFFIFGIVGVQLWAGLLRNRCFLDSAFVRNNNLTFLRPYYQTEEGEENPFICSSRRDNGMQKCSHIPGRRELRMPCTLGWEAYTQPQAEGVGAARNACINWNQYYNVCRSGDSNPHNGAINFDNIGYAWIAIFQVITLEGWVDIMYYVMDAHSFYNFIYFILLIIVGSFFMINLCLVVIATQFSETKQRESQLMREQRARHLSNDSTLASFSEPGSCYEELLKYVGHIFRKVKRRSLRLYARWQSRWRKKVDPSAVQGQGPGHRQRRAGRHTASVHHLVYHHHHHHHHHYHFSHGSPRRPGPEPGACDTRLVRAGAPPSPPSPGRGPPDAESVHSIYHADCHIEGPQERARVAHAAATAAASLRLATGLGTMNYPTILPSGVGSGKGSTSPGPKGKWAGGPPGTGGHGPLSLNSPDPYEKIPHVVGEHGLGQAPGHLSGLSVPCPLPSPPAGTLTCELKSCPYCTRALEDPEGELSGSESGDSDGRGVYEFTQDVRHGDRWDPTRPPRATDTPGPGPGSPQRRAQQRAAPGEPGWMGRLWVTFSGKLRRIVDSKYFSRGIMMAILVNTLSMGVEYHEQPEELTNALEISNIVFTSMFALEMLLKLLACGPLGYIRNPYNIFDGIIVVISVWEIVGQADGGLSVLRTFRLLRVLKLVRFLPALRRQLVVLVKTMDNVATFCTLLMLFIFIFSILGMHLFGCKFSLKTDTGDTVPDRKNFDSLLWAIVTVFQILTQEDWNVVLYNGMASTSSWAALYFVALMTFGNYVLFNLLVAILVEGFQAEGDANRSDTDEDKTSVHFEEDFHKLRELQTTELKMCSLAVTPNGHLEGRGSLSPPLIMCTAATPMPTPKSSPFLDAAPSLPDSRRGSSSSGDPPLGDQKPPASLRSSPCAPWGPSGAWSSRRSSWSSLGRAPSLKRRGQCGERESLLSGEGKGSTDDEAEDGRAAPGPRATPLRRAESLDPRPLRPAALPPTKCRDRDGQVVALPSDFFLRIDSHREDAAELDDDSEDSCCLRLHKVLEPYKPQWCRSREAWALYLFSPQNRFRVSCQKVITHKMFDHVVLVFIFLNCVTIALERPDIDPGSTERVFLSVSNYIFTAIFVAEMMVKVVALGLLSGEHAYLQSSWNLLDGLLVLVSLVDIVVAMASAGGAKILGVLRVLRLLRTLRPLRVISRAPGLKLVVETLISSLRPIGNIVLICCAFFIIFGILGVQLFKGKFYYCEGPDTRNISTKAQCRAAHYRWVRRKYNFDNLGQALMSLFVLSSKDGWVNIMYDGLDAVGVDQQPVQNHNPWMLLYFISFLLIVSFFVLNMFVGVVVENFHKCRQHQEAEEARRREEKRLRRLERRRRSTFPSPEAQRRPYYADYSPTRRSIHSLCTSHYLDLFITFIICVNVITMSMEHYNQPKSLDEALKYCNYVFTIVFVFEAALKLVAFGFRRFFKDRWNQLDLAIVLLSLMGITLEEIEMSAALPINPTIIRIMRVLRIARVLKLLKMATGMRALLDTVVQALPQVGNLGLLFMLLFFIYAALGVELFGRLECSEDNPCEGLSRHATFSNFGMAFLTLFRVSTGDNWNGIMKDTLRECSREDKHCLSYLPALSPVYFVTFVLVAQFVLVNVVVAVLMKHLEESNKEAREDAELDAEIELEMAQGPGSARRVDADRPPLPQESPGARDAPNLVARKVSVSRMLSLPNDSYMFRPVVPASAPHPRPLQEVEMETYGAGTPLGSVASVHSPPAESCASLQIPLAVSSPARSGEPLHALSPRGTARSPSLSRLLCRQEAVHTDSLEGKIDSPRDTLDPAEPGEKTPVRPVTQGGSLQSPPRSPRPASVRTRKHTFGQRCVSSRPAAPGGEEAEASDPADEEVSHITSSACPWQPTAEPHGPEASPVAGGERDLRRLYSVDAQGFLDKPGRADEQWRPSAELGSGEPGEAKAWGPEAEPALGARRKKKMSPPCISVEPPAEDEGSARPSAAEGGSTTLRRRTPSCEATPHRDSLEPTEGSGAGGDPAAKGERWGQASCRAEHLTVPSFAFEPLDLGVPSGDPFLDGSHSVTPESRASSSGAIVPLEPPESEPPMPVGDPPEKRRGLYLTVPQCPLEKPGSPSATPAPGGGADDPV
Sequence of Voltage-dependent L-type calcium channel subunit alpha-1C (Q13936 whole entry, the tested form may be a part): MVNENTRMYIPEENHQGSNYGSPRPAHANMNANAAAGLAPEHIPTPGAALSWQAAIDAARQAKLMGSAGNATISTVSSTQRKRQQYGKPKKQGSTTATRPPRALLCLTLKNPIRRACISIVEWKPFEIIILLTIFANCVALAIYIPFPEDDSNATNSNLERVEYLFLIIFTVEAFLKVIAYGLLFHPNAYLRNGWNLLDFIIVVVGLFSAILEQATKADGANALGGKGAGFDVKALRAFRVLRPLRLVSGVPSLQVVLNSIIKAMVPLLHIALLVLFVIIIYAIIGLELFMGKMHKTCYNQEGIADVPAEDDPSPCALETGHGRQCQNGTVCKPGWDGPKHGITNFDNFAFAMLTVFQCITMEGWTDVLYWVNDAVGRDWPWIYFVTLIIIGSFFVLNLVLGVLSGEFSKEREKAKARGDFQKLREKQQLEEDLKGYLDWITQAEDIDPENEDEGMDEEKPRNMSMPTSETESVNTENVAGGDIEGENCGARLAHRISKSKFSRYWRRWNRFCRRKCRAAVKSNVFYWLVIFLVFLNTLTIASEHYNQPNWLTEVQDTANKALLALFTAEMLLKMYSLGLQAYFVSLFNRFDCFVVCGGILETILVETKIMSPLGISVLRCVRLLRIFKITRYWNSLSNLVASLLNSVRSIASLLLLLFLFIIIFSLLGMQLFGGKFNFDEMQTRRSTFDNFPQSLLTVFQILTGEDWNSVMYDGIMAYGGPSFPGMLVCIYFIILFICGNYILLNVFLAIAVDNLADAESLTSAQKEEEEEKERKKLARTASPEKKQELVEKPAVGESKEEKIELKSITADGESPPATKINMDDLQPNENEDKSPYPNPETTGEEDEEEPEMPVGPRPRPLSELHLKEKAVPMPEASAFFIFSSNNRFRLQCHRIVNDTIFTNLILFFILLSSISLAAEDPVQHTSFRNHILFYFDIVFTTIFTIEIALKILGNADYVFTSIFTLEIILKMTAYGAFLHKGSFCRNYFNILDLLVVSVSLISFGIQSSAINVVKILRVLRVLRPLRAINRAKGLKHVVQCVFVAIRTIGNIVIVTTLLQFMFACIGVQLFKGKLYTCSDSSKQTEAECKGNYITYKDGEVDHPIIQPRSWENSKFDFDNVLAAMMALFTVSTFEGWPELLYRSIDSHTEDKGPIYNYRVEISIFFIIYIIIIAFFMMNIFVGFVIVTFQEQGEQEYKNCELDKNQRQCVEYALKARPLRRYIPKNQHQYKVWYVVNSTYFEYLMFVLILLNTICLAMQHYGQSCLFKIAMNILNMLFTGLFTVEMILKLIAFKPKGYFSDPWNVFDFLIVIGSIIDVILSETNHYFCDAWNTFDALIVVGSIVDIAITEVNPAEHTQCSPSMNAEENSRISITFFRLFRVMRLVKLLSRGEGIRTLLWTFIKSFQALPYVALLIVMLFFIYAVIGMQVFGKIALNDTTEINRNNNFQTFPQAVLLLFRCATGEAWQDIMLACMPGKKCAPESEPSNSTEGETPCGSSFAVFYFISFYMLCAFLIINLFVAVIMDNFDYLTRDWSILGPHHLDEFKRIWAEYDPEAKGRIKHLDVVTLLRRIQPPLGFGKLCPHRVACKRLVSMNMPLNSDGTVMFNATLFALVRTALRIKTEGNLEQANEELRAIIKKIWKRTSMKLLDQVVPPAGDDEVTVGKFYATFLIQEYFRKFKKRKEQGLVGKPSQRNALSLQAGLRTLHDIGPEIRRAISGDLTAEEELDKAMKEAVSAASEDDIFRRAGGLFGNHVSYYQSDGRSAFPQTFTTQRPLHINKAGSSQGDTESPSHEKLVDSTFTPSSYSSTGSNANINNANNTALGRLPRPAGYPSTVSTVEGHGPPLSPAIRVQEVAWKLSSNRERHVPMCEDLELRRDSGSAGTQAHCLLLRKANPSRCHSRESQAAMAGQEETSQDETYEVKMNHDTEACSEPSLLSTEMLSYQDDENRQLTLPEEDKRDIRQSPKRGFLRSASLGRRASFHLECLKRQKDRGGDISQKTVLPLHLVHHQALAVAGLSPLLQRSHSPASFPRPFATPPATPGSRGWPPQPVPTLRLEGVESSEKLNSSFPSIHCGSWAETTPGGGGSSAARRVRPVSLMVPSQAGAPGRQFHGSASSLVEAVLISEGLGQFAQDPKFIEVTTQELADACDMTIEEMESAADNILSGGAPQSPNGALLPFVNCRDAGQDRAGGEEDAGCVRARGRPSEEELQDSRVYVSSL

Compound: CC(C)C(=O)O[C@]1(CCN(C)CCCc2nc3ccccc3[nH]2)C[C@@H](OCc2ccccc2)c2cc(F)ccc2[C@@H]1C(C)C
IC50 [1]: 156 nM
EC50 (Heart; [22]): 20 nM
IC50 [2]: 132 nM

Compound: CC(C)C(=O)O[C@]1(CCN(C)CCCc2nc3ccccc3[nH]2)C[C@@H](O)c2cc(F)ccc2[C@@H]1C(C)C
IC50 [1]: 504 nM
EC50 (Heart; [22]): 134 nM
IC50 [2]: 107 nM

Compound: CC(C)C(=O)O[C@]1(CCN(C)CCCc2nc3ccccc3[nH]2)C[C@H](O)c2cc(F)ccc2[C@@H]1C(C)C
IC50 [1]: 426 nM
EC50 (Heart; [22]): 38 nM
IC50 [2]: 76 nM

Compound: CC(C)C(=O)O[C@]1(CCN(C)CCCc2nc3ccccc3[nH]2)C[C@@H]2CC[C@H]1c1ccccc12
IC50 [1]: 699 nM
EC50 (Heart): > 150 nM
IC50 [2]: 350 nM

Compound: COc1cccc2nc(CCCN(C)CC[C@]3(OC(=O)C(C)C)C[C@H]4CCC[C@@H]3c3ccccc34)[nH]c12
IC50 [1]: 387 nM
half-life [3]: 2.2 h
Vd [4]: 7.1 L/kg
fraction unbound [5]: 0.002
IC50 (Cytochrome P450 2C9): 32000 nM
solubility [6]: 119 µg/mL (≈ 236 µM)
fraction unbound [7]: < 0.001
solubility [8]: 734 µg/mL (≈ 1460 µM)
IC50 (Cytochrome P450 3A4 [9]): 34000 nM
Activity (Rattus norvegicus [10]): 35 mmHg
logD [11]: 2.7
Time (Rattus norvegicus [12]): 24 h
Cmax [13]: 64 ng/mL
IC50 (Cytochrome P450 3A4 [14]): 3000 nM
solubility [15]: 681 µg/mL (≈ 1350 µM)
clearance [16]: 58 mL/min/kg
bioavailability [17]: 7%
IC50 (Cytochrome P450 2D6): 1400 nM
IC50 (Cytochrome P450 3A4 [18]): 5500 nM
ABC (Rattus norvegicus [19]): 377 mmHg.hr
AUC [20]: 198 ng·h/mL
IC50 [21]: < 400 nM
EC50 (Heart; [22]): 7 nM
IC50 [2]: 84 nM

Compound: CCCC[C@@H]1C[C@@](CCN(C)CCCc2nc3ccccc3[nH]2)(OC(=O)COC)[C@@H](C(C)C)c2ccc(F)cc21
IC50 [1]: 173 nM
EC50 (Heart; [22]): 23 nM
IC50 [2]: 193 nM

Compound: COCC(=O)O[C@]1(CCN(C)CCCc2nc3ccccc3[nH]2)C[C@@H]2CC[C@H]1c1ccccc12 (racemic)
IC50 [1]: 748 nM
EC50 (Heart; [22]): 250 nM
IC50 [2]: 361 nM

Compound: CC(C)C(=O)O[C@]1(CCN(C)CCCc2nc3ccccc3[nH]2)C[C@@H]2CCC[C@H]1c1ccccc12 (racemic)
IC50 [1]: 437 nM
EC50 (Heart): 39 nM
IC50 [2]: 217 nM

Compound: CC(C)C(=O)O[C@]1(CCN(C)CCCc2nc3ccccc3[nH]2)C[C@@H]2CC[C@H]1c1nccnc12 (racemic)
IC50 [1]: > 4600 nM
EC50 (Heart; [22]): > 1000 nM
IC50 [2]: 2070 nM

The next lines start with results.

EC50 (Heart; [22]): 16 nM
IC50 [2]: 113 nM
Compound: CC(C)C(=O)O[C@]1(CCN(C)CCCc2nc3ccccc3[nH]2)C[C@H](OCc2ccccc2)c2cc(F)ccc2[C@@H]1C(C)C
IC50 [1]: 225 nM

EC50 (Heart; [22]): 40 nM
IC50 [2]: 318 nM
Compound: CO[C@H]1C[C@@](CCN(C)CCCc2nc3ccccc3[nH]2)(OC(=O)C(C)C)[C@@H](C(C)C)c2ccc(F)cc21
IC50 [1]: 403 nM

EC50 (Heart; [22]): 26 nM
IC50 [2]: 225 nM
Compound: CC(C)C(=O)O[C@]1(CCN(C)CCCc2nc3ccccc3[nH]2)C[C@@H]2CCC[C@H]1c1ccccc12
IC50 [1]: 648 nM

EC50 (Heart; [22]): 26 nM
IC50 [2]: 398 nM
Compound: CC(C)C(=O)O[C@@]1(CCN(C)CCCc2nc3ccccc3[nH]2)C[C@H]2CC[C@@H]1c1ccccc12
IC50 [1]: 424 nM

EC50 (Heart; [22]): 22 nM
IC50 [2]: 184 nM
Compound: CC(C)C(=O)O[C@@]1(CCN(C)CCCc2nc3ccccc3[nH]2)C[C@H]2CCC[C@@H]1c1ccccc12
IC50 [1]: 455 nM

EC50 (Heart; [22]): 20 nM
IC50 [2]: 149 nM
Compound: CC(C)C(=O)O[C@]1(CCN(C)CCCc2nc3ccccc3[nH]2)CCc2cc(F)ccc2[C@@H]1C(C)C
IC50 [1]: 347 nM

IC50 [2]: 207 nM
Compound: COCC(=O)O[C@]1(CCN(C)CCCc2nc3ccccc3[nH]2)CC(C)(C)c2cc(F)ccc2[C@@H]1C(C)C
IC50 [1]: 434 nM

EC50 (Heart; [22]): 29 nM
IC50 [2]: 557 nM
Compound: CO[C@@H]1C[C@@](CCN(C)CCCc2nc3ccccc3[nH]2)(OC(=O)C(C)C)[C@@H](C(C)C)c2ccc(F)cc21
IC50 [1]: 588 nM

EC50 (Heart): 42 nM
IC50 [2]: 432 nM
Compound: CC(C)C(=O)O[C@]1(CCN(C)CCCc2nc3ccccc3[nH]2)C[C@@H]2CC[C@H]1c1ccccc12 (racemic)
IC50 [1]: 533 nM

EC50 (Heart; [22]): 77 nM
IC50 [2]: 210 nM
Compound: CN(CCCc1nc2ccccc2[nH]1)CC[C@@]1(OC(=O)C2CC2)C[C@@H]2CC[C@H]1c1ccccc12 (racemic)
IC50 [1]: 140 nM

EC50 (Heart; [22]): > 300 nM
IC50 [2]: 224 nM
Compound: CO[C@]1(CCN(C)CCCc2nc3ccccc3[nH]2)C[C@@H]2CC[C@H]1c1ccccc12 (racemic)
IC50 [1]: 2670 nM

EC50 (Heart; [22]): 26 nM
Compound: COCC(=O)O[C@]1(CCN(C)CCCc2nc3ccccc3[nH]2)CCc2cc(F)ccc2[C@@H]1C(C)C [MIBEFRADIL]
Activity (Rattus norvegicus [10]): 32 mmHg
ABC (Rattus norvegicus [19]): 437 mmHg.hr
